# Reference: patent publication US7691624B2, “Cancer cell detecting devices” (Academia Sinica, priority 2003, dated 2010)
# How the values were obtained:
# [1] = test system: CL1-0 cancer cells; assay: Fluorescence of stained cells in eppendorf under LED, recorded by camera; format: cell-based, human; conditions: for Numbers of cells required to distinguish cancer cells and normal cells: Cancer cells (C) CL1-0
# Protocol: (§1) Human lung CL1-0 cancer cells or MRC-5 normal cells were incubated with 0.5 μM of Compound 2 and acridine orange (AO). After incubation in standard culture medium for 1 hour, the non-fixed cells were removed by washing the culture three times with phosphate buffered saline (PBS). The fixed cells were collected in an eppendorf by trypsinization. The eppendorf was centrifuged and then illuminated by an light emitting diode (LED) emitting excitation light with a center wavelength at 470 nm. A conventional digital camera was used to record the fluorescence. Table 1 summarizes the numbers of cells required to distinguish cancer cells from normal cells based on fluorescence emission of Compound 2 and AO recorded by a camera under different experimental conditions. Specifically, Compound 2 and AO were incubated with four different cells in eppendorf, i.e., MRC-5 normal cells, primary fibroblast, CL1-0 cancer cells, and HeLa cancer cells.
# [2] = test system: MRC-5 normal cells; assay: as above; format: cell-based, human; conditions: for Numbers of cells required to distinguish cancer cells and normal cells: Normal cells (M) MRC-5
# Protocol: as §1
# [3] = test system: CL1-0 cancer cells; assay: Stained cells spread onto cover slip, fluorescent cells counted; format: cell-based; conditions: 0.02 μM AO, 5 minutes, cover slip, LED
# Protocol: Further, the role of the ratio of the cells stained by Compound 2/AO in cancer diagnosis was studied. Specifically, CL1-0 cancer cells, NIH3T3 normal cells, and their 1:10 mixture were respectively stained with 0.02 μM AO and 1.5 μM Compound 2 for 5 minutes in eppendorfs. Each sample was then taken from the eppendorf and spread onto a cover slip. Fluorescence emissions were recorded by a color camera upon an LED illumination. […] A statistical histogram of the ratio of the cell stained with Compound 2/AO to the ratio of the CL1-0 cells to the sum of NIH3T3 and CL1-0 cells was plotted. Each spot on the histogram represented an average of 5-10 measurements from a single sample.
# [4] = test system: HeLa cancer cells; assay: Fluorescence of stained cells in eppendorf under LED, recorded by camera; format: cell-based; conditions: Cancer cells (H) HeLa
# Protocol: as §1
# [5] = test system: primary fibroblast; assay: as above; format: cell-based; conditions: Normal cells (F) primary fibroblast
# Protocol: as §1
# [6] = test system: DNA; assay: Fluorescence analysis in the presence of a DNA; format: binding; conditions: λex≈430 nm; compound 2 with eleven DNAs, compound 4 with Hum24
# Protocol: (§2) Compound 2 was mixed with eleven DNAs and subjected to fluorescence analysis at λex≈430 nm, using a Hitachi F4010 spectrofluorimeter with a 2 nm bandwidth in a 1-cm cell. Fluorescence analysis was also carried out for compound 4 in the presence of Hum24. […] Further, the fluorescence peaks for a complex of compound 2 and a DNA duplex and a complex of compound 2 and a DNA quadruplex were at ˜550 nm and ˜575 nm, respectively.
# [7] = test system: Hum24 quadruplex; assay: Temperature-dependent CD analysis; format: binding, human
# From the text: Eight DNA quadruplexes and their complexes with compound 2 were subjected to CD analysis. CD spectra were averaged 10 scans on a Jasco J-715 spectropolarimeter with a 2 nm bandwidth. The scan speed was 50 nm/min and the step resolution was 0.2 nm.
# Further, Hum24 and its complexes with compounds 2, 4, 6, and 8 were subjected to temperature-dependent CD analysis.
# [8] = Fluorescence analysis in aqueous solution; format: physicochemical; conditions: λex≈430 nm, no DNA
# Protocol: as §2
smiles,measurement,setting,value
"CN(C)c1ccc2cc3ccc(N(C)C)cc3nc2c1 [AO, acridine orange, reference compound]",fluorescence emission in eppendorf,"[1]; 0.5 μM, 1 hour, LED 470 nm",fluorescence emission was detected
same,Numbers of cells required to distinguish cancer cells and normal cells,[1]; 0.1 μM/30 min,"2,000 (C)"
same,Numbers of cells required to distinguish cancer cells and normal cells,[1]; 0.5 μM/1 hr,"1,000 (C)"
same,fluorescence emission in eppendorf,"[2]; 0.5 μM, 1 hour, LED 470 nm",fluorescence emission was detected
same,Numbers of cells required to distinguish cancer cells and normal cells,[2]; 0.1 μM/30 min,"3,000 (M)"
same,Numbers of cells required to distinguish cancer cells and normal cells,[2]; 0.5 μM/1 hr,"2,000 (M)"
same,number of stained cells showing fluorescence,[3],150
same,Numbers of cells required to distinguish cancer cells and normal cells,[4]; 0.05 μM/1 hr,"3,000 (H)"
same,Numbers of cells required to distinguish cancer cells and normal cells,[4]; 0.1 μM/1 hr,"2,000 (H)"
same,Numbers of cells required to distinguish cancer cells and normal cells,[5]; 0.05 μM/1 hr,"4,000 (F)"
same,Numbers of cells required to distinguish cancer cells and normal cells,[5]; 0.1 μM/1 hr,"2,000 (F)"
"C[n+]1ccccc1C=Cc1ccc2[nH]c3ccc(C=Cc4cccc[n+]4C)cc3c2c1.[I-].[I-] [Compound 4, 3,6-bis-(2-(1-methylpyridinium-2-yl)-vinyl)-9H-carbazole diiodide]",increase of fluorescence intensity in the presence of a DNA,[6],two orders of magnitude
same,melting temperature of Hum24 quadruplex in the presence of compound,[7],increased
same,fluorescence in an aqueous solution,[8],weak
"C[n+]1ccnc(C=Cc2ccc3[nH]c4ccc(C=Cc5c[n+](C)ccn5)cc4c3c2)c1.[I-].[I-] [Compound 6, 3,6-bis-(2-(4-methylpyrazin-4-ium-2-yl)-vinyl)-9H-carbazole diiodide]",melting temperature of Hum24 quadruplex in the presence of compound,[7],increased
"C[n+]1ccc(C=Nc2ccc3[nH]c4ccc(N=Cc5cc[n+](C)cc5)cc4c3c2)cc1.[I-].[I-] [Compound 8, N,N′-bis-((1-methylpyridinium-4-yl)methylidene)-9H-carbazole-3,6-diamine diiodide]",melting temperature of Hum24 quadruplex in the presence of compound,[7],increased
